“Also recorded” adds a separate entry of the source.
Columns and labels:
human muscle cells = assay: Testing of secreted proteins/cytokines for induction of the L1000 cachexia signature in muscle cells; assay type: cell-based; details: in vitro systems described
Procedure: FIG. 32 are graphs showing cytokine abundance relative to cachexia in patient plasma and conditioned media. Human cytokines (300 on cytokine array) in muscle were tested. None of the expected “usual suspect” cytokines induced the cachectic phenotype or gene expression signature in human muscle cells. IL6, INHBA, IFNG, IL10, IL1, TNFa was assayed in patient plasma and conditioned media.
FIG. 33 is a graph showing testing of human cytokines for induction of cancer cachexia signature. For some the enrichment score was weak (e.g., 1.25).
A faithful read-out of the cachectic phenotype was also developed using a novel high-throughput, low-cost gene expression profiling method (L1000) (FIG. 5). L1000 involves the profiling of 1000 human transcripts from which the remainder of the transcriptome can be computationally inferred. This method, validated in over 1 million samples, allowed for profiling of small numbers of cells grown in 384-well plates.
Therefore, it is likely that the major cachexia-inducing factors were yet to be discovered.

[1] = test system: differentiated primary adipocytes; assay: Lipid loss in adipocytes treated with CI-CM (bodipy/DAPI staining); assay type: cell-based, human; details: 5 days CI-CM, FIG. 42
Source text: FIG. 42 includes six panels showing adipocytes in cultured stained with bodipy to highlight lipids and DAPI to stain nuclei. Lipids are lost in cells treated for 5 days with cachexia (CXA) inducing conditioned media (CM). Lipid loss is inhibited by inhibiting RAGE signaling.
Lipid loss from differentiated primary adipocytes occurs within 5 days of contact with cachexia-inducing conditioned media (FIG. 42A). This loss is inhibited in adipocytes treated with Rage inhibitors, anti-RAGE monoclonal antibody AF1145 or Tramatenib. This phenotypic response is also seen in melanoma cells.
The effects of treatment with RAGE blocking antibodies and Tremetinib are shown (FIG. 42).

MEK/ERK = assay: Western blot of phosphorylated MEK and ERK in muscle cells exposed to cachexia-inducing conditioned media (CI-CM); assay type: cell-based, human; details: FIG. 20; for CI-CM stimulated phosphorylation of ERK: human muscle cells stimulated by CI-CM; for MEK/ERK activation (pMEK, pERK) by cachexia stimuli in CI-CM: muscle cells exposed to CI-CM, relative to NCI-CM, Western blot
Source text: FIG. 20 is an image of a Western blot showing phosphorylated MEK (pMEK) and phosphorylated ERK (pERK) in muscle cells exposed to cachexia-inducing conditioned media (CI-CM), either in the absence or presence of the MEK/ERK inhibitors, PD184352 (PD184) and trametinib (Tram). Also shown are pMEK and pERK levels in muscle cells exposed to non-cachexia-inducing conditioned media (NCI-CM).
Inhibition of MEK by exposure to PD1 84352 or trametinib blocked CI-CM stimulated phosphorylation of ERK (FIG. 20).

pancreatic cancer cells = assay: CellTiter Glo cell number assay, chemotherapy with or without soluble RAGE; assay type: cell-based; details: treated for 5 days; Gemcitibine alone or with increasing doses of recombinant human soluble RAGE
HSkM cells = assay: In-Cell Western of myosin heavy chain (MyoHC) content in muscle cells exposed to CI-CM; assay type: cell-based, human
Source text: FIG. 21 is a chart showing the quantification of myosin heavy chain (MyoHC) content determined by In-Cell Western analysis of in vitro HSkM cells treated with media conditioned by cachexia-inducing MkN1 and G361 cells and in vitro HSkM cells treated with media conditioned by non-cachexia-inducing 293 cells, either in the presence or absence of a MEK/ERK inhibitor PD184352 (PD184).
FIG. 22 is a chart showing the myosin heavy chain (MyoHC) content determined by In-Cell Western analysis of in vitro HSkM cells pre-treated (for 2 days) or not pre-treated with cachexia-inducing conditioned media (“CI-CM”), either in the presence or absence of an ERK1/2 inhibitor, SCH772984 (SCH2984).
FIGS. 23A and 23B are a series of charts showing the dose response of myosin heavy chain (MyoHC) content determined by In-Cell Western analysis of muscle cells treated with a RAGE Anti-Peptide (FIG. 23A) or an anti-RAGE mAb (FIG. 23B), either in the absence or presence of cachexia-inducing conditioned media (CI-CM).
FIG. 24 is a chart showing the dose response of myosin heavy chain (MyoHC) content determined by In-Cell Western analysis of muscle cells treated with a recombinant soluble RAGE, either in the presence of cachexia-inducing conditioned media (CI-CM) or non-cachexia-inducing conditioned media (NCI-CM). […]

Molecule: IL-6: secreted protein tested as candidate cachexia-inducing protein
- induction of the cachexia signature (human muscle cells): none of them strongly induced the cachexia signature

Molecule: CC(=O)Nc1cccc(-n2c(=O)n(C3CC3)c(=O)c3c(Nc4ccc(I)cc4F)n(C)c(=O)c(C)c32)c1 [trametinib, N-[3-[3-Cyclopropyl-5-[(2-fluoro-4-iodophenyl)amino]-3,4,6,7-tetrahydro-6,8-dimethyl-2,4,7-trioxopyrido[4,3-d]pyrimidin-1(2H)-yl]phenyl]acetamide]
- lipid loss from adipocytes caused by cachexia-inducing conditioned media ([1]; listed as Tramatenib): inhibited
- lipid loss from adipocytes caused by cachexia-inducing conditioned media ([1]; listed as Tremetinib): block the loss of lipid
- CI-CM stimulated phosphorylation of ERK (MEK/ERK): blocked
- MEK/ERK activation (pMEK, pERK) by cachexia stimuli in CI-CM (MEK/ERK): inhibited

Molecule: IFNγ: secreted protein tested as candidate cachexia-inducing protein
- induction of the cachexia signature (human muscle cells): none of them strongly induced the cachexia signature

Molecule: Activin
- induction of the cachexia signature (human muscle cells): none of them strongly induced the cachexia signature

Molecule: Nc1ccn([C@@H]2O[C@H](CO)[C@@H](O)C2(F)F)c(=O)n1 [Gemcitibine]
- pancreatic cancer cell numbers (CellTiter Glo) (pancreatic cancer cells): reduction

Molecule: TNFα
- induction of the cachexia signature (human muscle cells): none of them strongly induced the cachexia signature

Molecule: Myostatin: secreted protein tested as candidate cachexia-inducing protein
- induction of the cachexia signature (human muscle cells): none of them strongly induced the cachexia signature

Molecule: O=C(Nc1ccc2[nH]nc(-c3ccncc3)c2c1)C1CCN(CC(=O)N2CCN(c3ccc(-c4ncccn4)cc3)CC2)C1 (stereo not drawn) [SCH772984]
- reversal of cachectic induced loss of myosin heavy chain (MyoHC) (HSkM cells; HSkM cells pre-treated (2 days) or not with CI-CM, dose response, FIG. 22): can reverse the MyoHC loss at a certain dose, beyond which the benefit is lost; also recorded: (partially) reverse; also recorded: reduced in a dose-dependent manner

Molecule: O=C(NOCC1CC1)c1ccc(F)c(F)c1Nc1ccc(I)cc1Cl [PD184352]
- cachectic induced loss of myosin heavy chain (MyoHC) protein (HSkM cells; HSkM cells with media conditioned by MkN1 and G361 cells, low-dose, dose curve, FIG. 21): blocks loss of MyoHC; also recorded: block
- CI-CM stimulated phosphorylation of ERK (MEK/ERK): blocked
- MEK/ERK activation (pMEK, pERK) by cachexia stimuli in CI-CM (MEK/ERK): inhibited

B1: IL-10: secreted protein tested as candidate cachexia-inducing protein (protein, UniProt P22301 19-178, looked up)
Interleukin-10: SPGQGTQSENSCTHFPGNLPNMLRDLRDAFSRVKTFFQMKDQLDNLLLKESLLEDFKGYLGCQALSEMIQFYLEEVMPQAENQDPDIKAHVNSLGENLKTLRLRLRRCHRFLPCENKSKAVEQVKNAFNKLQEKGIYKAMSEFDIFINYIEAYMTMKIRN
- induction of the cachexia signature (human muscle cells): none of them strongly induced the cachexia signature
